Assay results taken from ChEMBL document CHEMBL5543155, “Design, Synthesis, and Biological Evaluation of β-Trifluoroethoxydimethyl Selenides as Potent Antiosteoporosis Agents” (J Med Chem, 2024).
The source made the active and inactive calls. The calls are words filed in the database; no cut-off is given here.

How the values were obtained:
BMMC [1] = assay: Effect on total JNK protein expression in RANKL-induced C57BL/6 mouse BMMC cells at 5 uM pretreated for 6 hrs followed by RANKL stimulation and measured upto 60 mins by Western blot analysis; format: functional, cell-based; settings: time <= 7.0 hrs
Mus musculus [2] = assay: Anti-osteoporosis activity in ovariectomized C57BL/6 mouse assessed as reduction in bone loss at 10 mg/kg, ip administered every other day for 8 weeks by H and E staining based analysis; format: functional, organism-based
BMMC [3] = assay: Anti-osteoclastogenesis activity in M-CSF/RANKL-induced C57BL/6 mouse BMMC cells assessed as downregulation of DC-STAMP gene expression incubated for 5 days by qRT-PCR analysis; format: functional, cell-based; settings: dose 0-10 µM, time 5.0 day
MC3T3-E1 [4] = assay: Induction of osteoblast differentiation in mouse MC3T3-E1 cells assessed as bone formation by measuring increase in Smad protein expression measured after 7 days by Western blot analysis; format: functional, cell-based; settings: dose 2.5-10 µM, time 7.0 day
BMMC [5] = assay: Anti-osteoclastogenesis activity in M-CSF/RANKL-induced C57BL/6 mouse BMMC cells assessed as downregulation of cathepsin K gene expression incubated for 5 days by qRT-PCR analysis; format: functional, cell-based; settings: dose 0-10 µM, time 5.0 day
BMMC [6] = assay: Effect on total p38 protein expression in RANKL-induced C57BL/6 mouse BMMC cells at 5 uM pretreated for 6 hrs followed by RANKL stimulation and measured upto 60 mins by Western blot analysis; format: functional, cell-based; settings: time <= 7.0 hrs
RAW264.7 [7] = assay: Cytotoxicity against mouse RAW264.7 cells assessed as cell destruction at 5 uM incubated for 48 hrs by MTT assay; format: toxicity, cell-based; settings: raw264.7, 48 h
BMMC [8] = assay: Anti-osteoclastogenesis activity in M-CSF/RANKL-induced C57BL/6 mouse BMMC cells assessed as downregulation of TRAP gene expression incubated for 5 days by qRT-PCR analysis; format: functional, cell-based; settings: dose 0-10 µM, time 5.0 day
[9] = Toxicity in OVX osteoporotic C57BL/6 mouse assessed as body weight loss at 10 mg/kg, ip administered every other day for 8 weeks and measured every week; format: organism-based; settings: in vivo, 1344 h
RAW264.7 [10] = assay: Inhibition of RANKL-induced osteoclast differentiation in mouse RAW264.7 cells at 5 uM incubated for 4 days with media replacement for every 2 days by TRAP-staining based light microscopic analysis; format: functional, cell-based; settings: time 4.0 day
[11] = Toxicity in OVX osteoporotic C57BL/6 mouse assessed as effect on size and surface gloss of heart at 10 mg/kg, ip administered every other day for 8 weeks by H and E staining based analysis; format: organism-based; settings: in vivo, 1344 h
[12] = Toxicity in OVX osteoporotic C57BL/6 mouse assessed as effect on size and surface gloss of lung at 10 mg/kg, ip administered every other day for 8 weeks by H and E staining based analysis; format: organism-based; settings: in vivo, 1344 h
Mus musculus [13] = assay: Anti-osteoporosis activity in ovariectomized C57BL/6 mouse assessed as reduction in bone loss by measuring decrease in TRAP-positive cells around trabecula at 10 mg/kg, ip administered every other day for 8 weeks by TRAP staining based analysis; format: functional, organism-based
Mus musculus [14] = assay: Anti-osteoporosis activity in ovariectomized C57BL/6 mouse assessed as reduction in bone loss by measuring increase in trabecular thickness at 10 mg/kg, ip administered every other day for 8 weeks by micro-CT analysis; format: functional, organism-based
BMMC [15] = assay: Cytotoxicity against C57BL/6 mouse BMMC cells assessed as reduction in cell viability at 30 uM incubated for 48 hrs by MTT assay; format: toxicity, cell-based
[16] = target: MAP kinase p38 (Mus musculus) (UniProt P47811+O08911+Q9WUI1+Q9Z1B7); assay: Inhibition of p38 phosphorylation in RANKL-induced C57BL/6 mouse BMMC cells at 5 uM pretreated for 6 hrs followed by RANKL stimulation and measured upto 60 mins by Western blot analysis; format: cell-based; settings: time <= 7.0 hrs
MC3T3-E1 [17] = assay: Induction of osteoblast differentiation in mouse MC3T3-E1 cells assessed as increase in ALP activity measured after 7 days by ALP staining based inverted microscopic analysis; format: functional, cell-based; settings: dose 2.5-10 µM, time 7.0 day
[18] = Toxicity in OVX osteoporotic C57BL/6 mouse assessed as abnormal behaviors at 10 mg/kg, ip administered every other day for 8 weeks; format: organism-based; settings: in vivo, 1344 h
MC3T3-E1 [19] = assay: Cytotoxicity against mouse MC3T3-e1 cells assessed as reduction in cell viability at 2.5 to 10 uM measured after 7 days by MTT assay; format: toxicity, cell-based; settings: mc3t3-e1, 168 h, dose 2.5-10 µM, time 7 day
BMMC [20] = assay: Anti-osteoclastogenesis activity in M-CSF/RANKL-induced C57BL/6 mouse BMMC cells assessed as downregulation of C-Fos gene expression incubated for 5 days by qRT-PCR analysis; format: functional, cell-based; settings: dose 0-10 µM, time 5.0 day
BMMC [21] = assay: Anti-osteoclastogenesis activity in M-CSF/RANKL-induced C57BL/6 mouse BMMC cells assessed as reduction in F-actin ring formation incubated for 7 days with media replacement for every other day by TRITC phalloidin/DAPI-staining based fluorescence microscopic analysis; format: functional, cell-based; settings: dose 0-10 µM, time 7.0 day
[22] = target: T1, NF-kappa-B inhibitor alpha (Mus musculus) (UniProt Q9Z1E3); assay: Inhibition of RANKL-induced IkappaBalpha degradation in C57BL/6 mouse BMMC cells at 5 uM pretreated for 6 hrs followed by RANKL stimulation and measured upto 60 mins by Western blot analysis; format: cell-based; settings: time <= 7.0 hrs
T1 sequence (whole entry): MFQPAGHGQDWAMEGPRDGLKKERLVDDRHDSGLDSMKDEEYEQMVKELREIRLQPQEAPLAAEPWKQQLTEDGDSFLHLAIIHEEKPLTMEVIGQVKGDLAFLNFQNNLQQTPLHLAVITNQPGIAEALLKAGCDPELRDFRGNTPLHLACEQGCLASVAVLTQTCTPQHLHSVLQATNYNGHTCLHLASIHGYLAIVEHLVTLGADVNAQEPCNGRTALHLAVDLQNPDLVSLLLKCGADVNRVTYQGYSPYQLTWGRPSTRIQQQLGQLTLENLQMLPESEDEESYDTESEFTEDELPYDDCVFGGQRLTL

[23] = target: T2, Tumor necrosis factor ligand superfamily member 11 (Mus musculus) (UniProt O35235); assay: Binding affinity to mouse RANKL assessed as increase in resonance units measured upto 240 mins by SPR analysis; settings: dose 15.63-500 µM
T2 sequence (whole entry): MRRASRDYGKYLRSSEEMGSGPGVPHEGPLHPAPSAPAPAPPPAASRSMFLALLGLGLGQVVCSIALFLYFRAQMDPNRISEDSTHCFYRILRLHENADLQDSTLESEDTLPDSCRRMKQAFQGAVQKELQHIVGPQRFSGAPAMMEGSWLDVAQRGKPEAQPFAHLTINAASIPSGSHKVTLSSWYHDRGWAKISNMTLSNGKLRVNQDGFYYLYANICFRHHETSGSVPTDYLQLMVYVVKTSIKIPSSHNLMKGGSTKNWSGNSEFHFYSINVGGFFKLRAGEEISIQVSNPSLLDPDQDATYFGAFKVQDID

BMMC [24] = assay: Inhibition of ERK phosphorylation in RANKL-induced C57BL/6 mouse BMMC cells at 5 uM pretreated for 6 hrs followed by RANKL stimulation and measured upto 60 mins by Western blot analysis; format: cell-based; settings: time <= 7.0 hrs
BMMC [25] = assay: Anti-osteoclastogenesis activity in M-CSF/RANKL-induced C57BL/6 mouse BMMC cells assessed as reduction in size of TRAP-positive osteoclasts at 0 to 10 uM incubated for 6 days with media replacement for every 2 days by TRAP-staining based light microscopic analysis; format: functional, cell-based; settings: dose 0-10 µM, time 6.0 day

For CC(C)(OCC(F)(F)F)C([Se]c1ccccc1)C(=O)Nc1ccncc1 (stereo not given), the Activity (BMMC [1]) was “inactive”, the Activity (Mus musculus [2]) was “Active” and the Activity (BMMC [3]) was “Dose-Dependent Effect”. For the same compound, the Activity (MC3T3-E1 [4]) was “Dose-Dependent Effect”, the Activity (BMMC [5]) was “Dose-Dependent Effect” and the Activity (BMMC [6]) was “inactive”. The Activity (RAW264.7 [7]) was “Non-Toxic”, the Activity (BMMC [8]) was “Dose-Dependent Effect” and the Activity [9] was “Non-Toxic”. For the same compound, the inhibition (RAW264.7 [10]) was “Active”, the Activity [11] was “Non-Toxic” and the Activity [12] was “Non-Toxic”. For the same compound, the Activity (Mus musculus [13]) was “Active”, the Activity (Mus musculus [14]) was “Active” and the Activity (BMMC [15]) was “Non-Toxic”. The inhibition [16] was “Active”, the Activity (MC3T3-E1 [17]) was “Dose-Dependent Effect” and the Activity [18] was “Non-Toxic”. The Activity (MC3T3-E1 [19]) was “Non-Toxic”, the Activity (BMMC [20]) was “Dose-Dependent Effect” and the Activity (BMMC [21]) was “Dose-Dependent Effect”. The inhibition [22] was “Active”, the Activity [23] was “Active” and the inhibition (BMMC [24]) was “Active”. For the same compound, the Activity (BMMC [25]) was “Active”.
